This note sets out measurements from ChEMBL document CHEMBL1152994, “Plasmid-mediated carbapenem-hydrolyzing beta-lactamase KPC-2 in Klebsiella pneumoniae isolate from Greece” (2008).

In brackets after ≈: the same amount, converted by molar mass.

The subject of one assay is Klebsiella pneumoniae. As to the kind of experiment: Antibacterial activity against Klebsiella pneumoniae Greece producing KPC-2 beta-lactamase by E test method. The class given is functional.
The test system of assay [1] is Escherichia coli. As to the kind of experiment: Antibacterial activity against Escherichia coli J53 expressing Klebsiella pneumoniae Greece blaKPC-2 gene by E test method. The class given is functional.
In assay [2] the test system is Escherichia coli. Description: Antibacterial activity against Escherichia coli J53 by E test method. In kind it is functional.
The target of assay [3] is T1, Class A carbapenemase (Klebsiella pneumoniae) (UniProt A9LM97).
T1 sequence (whole entry): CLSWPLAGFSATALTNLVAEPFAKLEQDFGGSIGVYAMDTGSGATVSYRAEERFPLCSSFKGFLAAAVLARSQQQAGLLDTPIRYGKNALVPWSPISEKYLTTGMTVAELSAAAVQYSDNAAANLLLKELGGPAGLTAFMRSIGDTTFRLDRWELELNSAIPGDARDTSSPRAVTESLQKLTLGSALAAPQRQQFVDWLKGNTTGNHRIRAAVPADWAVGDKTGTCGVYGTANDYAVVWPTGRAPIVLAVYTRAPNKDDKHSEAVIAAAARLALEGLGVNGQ
Description: Activity at Klebsiella pneumoniae Greece Carbapenem-Hydrolyzing-Lactamase KPC-2 assessed per mg of total protein by spectrophotometrically.

For the compound `CC1(C)S[C@@H]2[C@H](NC(=O)[C@H](N)c3ccc(O)cc3)C(=O)N2[C@H]1C(=O)O` [AMOXICILLIN], the values for the MIC in the assay on Klebsiella pneumoniae, against Escherichia coli [1] and in the assay on Escherichia coli [2] were > 256 µg/mL, > 256 µg/mL and 4 µg/mL (≈ 10.9 µM), respectively.
Turning to `C[C@H]1[C@H](NC(=O)/C(=N\OC(C)(C)C(=O)O)c2csc(N)n2)C(=O)N1S(=O)(=O)O` [AZTREONAM], the MIC was > 256 µg/mL in the assay on Klebsiella pneumoniae and 16 µg/mL (≈ 36.7 µM) with Escherichia coli [1].
For `CO/N=C(\C(=O)N[C@@H]1C(=O)N2C(C(=O)[O-])=C(C[N+]3(C)CCCC3)CS[C@H]12)c1csc(N)n1` [CEFEPIME], the figures for the MIC against Klebsiella pneumoniae, against Escherichia coli [1] and in the assay with Escherichia coli [2] were > 256 µg/mL, 1.5 µg/mL (≈ 3.12 µM) and 0.03 µg/mL (≈ 0.0624 µM), respectively.
The corresponding values for `CO/N=C(\C(=O)N[C@@H]1C(=O)N2C(C(=O)O)=C(COC(C)=O)CS[C@H]12)c1csc(N)n1` [CEFOTAXIME] are > 32 µg/mL, 4 µg/mL (≈ 8.78 µM) and 0.06 µg/mL (≈ 0.132 µM).
In the same order, the values of `CO[C@@]1(NC(=O)Cc2cccs2)C(=O)N2C(C(=O)O)=C(COC(N)=O)CS[C@@H]21` [CEFOXITIN] are 64 µg/mL (≈ 150 µM), 4 µg/mL (≈ 9.36 µM) and 2 µg/mL (≈ 4.68 µM).
In the same order, the values of `CC(C)(O/N=C(\C(=O)N[C@@H]1C(=O)N2C(C(=O)[O-])=C(C[n+]3ccccc3)CS[C@H]12)c1csc(N)n1)C(=O)O` [CEFTAZIDIME] are > 256 µg/mL, 4 µg/mL (≈ 7.32 µM) and 0.06 µg/mL (≈ 0.11 µM).
On to `CC(=O)OCC1=C(C(=O)O)N2C(=O)[C@@H](NC(=O)Cc3cccs3)[C@H]2SC1` [CEPHALOTHIN], for which the MIC against Klebsiella pneumoniae is > 256 µg/mL; in the assay on Escherichia coli [1], > 256 µg/mL; with Escherichia coli [2] it was 1 µg/mL (≈ 2.52 µM).
Turning to `C[C@@H](O)[C@H]1C(=O)N2C(C(=O)O)=C(S[C@@H]3CN[C@H](C(=O)Nc4cccc(C(=O)O)c4)C3)[C@H](C)[C@H]12` [ERTAPENEM], the Activity in assay [3] amounted to 0.05 µmol. For the same compound, the MIC amounted to 12 µg/mL (≈ 25.2 µM) with Klebsiella pneumoniae, 0.38 µg/mL (≈ 0.799 µM) against Escherichia coli [1] and 0.03 µg/mL (≈ 0.0631 µM) in the assay with Escherichia coli [2].
The compound `C[C@@H](O)[C@H]1C(=O)N2C(C(=O)O)=C(SCCNC=N)C[C@H]12` [IMIPENEM ANHYDROUS] showed an Activity in assay [3] of 0.2 µmol. Further, the results for the MIC with Klebsiella pneumoniae and against Escherichia coli [1] were 12 µg/mL (≈ 40.1 µM) and 1.5 µg/mL (≈ 5.01 µM), respectively.
In assay [3], `C[C@@H](O)[C@H]1C(=O)N2C(C(=O)O)=C(S[C@@H]3CN[C@H](C(=O)N(C)C)C3)[C@H](C)[C@H]12` [MEROPENEM] displayed an Activity of 0.06 µmol. Besides, the figures for the minimal inhibitory concentration (MIC) in the assay with Klebsiella pneumoniae, in the assay with Escherichia coli [1] and against Escherichia coli [2] were 6 µg/mL (≈ 15.6 µM), 0.38 µg/mL (≈ 0.991 µM) and 0.03 µg/mL (≈ 0.0782 µM), respectively.
Take `CCN1CCN(C(=O)N[C@@H](C(=O)N[C@@H]2C(=O)N3[C@@H]2SC(C)(C)[C@@H]3C(=O)O)c2ccccc2)C(=O)C1=O` [PIPERACILLIN]: the MIC is > 256 µg/mL in the assay on Klebsiella pneumoniae, 128 µg/mL (≈ 247 µM) in the assay with Escherichia coli [1] and 1 µg/mL (≈ 1.93 µM) against Escherichia coli [2].
In the same order, the values of `CC1(C)S[C@@H]2[C@H](NC(=O)[C@H](C(=O)O)c3ccsc3)C(=O)N2[C@H]1C(=O)O` [TICARCILLIN] are > 256 µg/mL, > 256 µg/mL and 2 µg/mL (≈ 5.2 µM).
Consider `CN(C)c1cc(NC(=O)CNC(C)(C)C)c(O)c2c1C[C@H]1C[C@H]3[C@H](N(C)C)C(O)=C(C(N)=O)C(=O)[C@@]3(O)C(O)=C1C2=O` [TIGECYCLINE], for which the minimal inhibitory concentration (MIC) in the assay on Klebsiella pneumoniae was 3 µg/mL (≈ 5.12 µM); against Escherichia coli [1], 0.5 µg/mL (≈ 0.854 µM); in the assay with Escherichia coli [2] it was 0.5 µg/mL (≈ 0.854 µM).
Turning to COLISTIN, the MIC against Klebsiella pneumoniae was determined as 128 µg/mL; against Escherichia coli [1], 0.38 µg/mL; against Escherichia coli [2] it was 0.38 µg/mL.
As to GENTAMICIN, the MIC in the assay on Klebsiella pneumoniae was 1.5 µg/mL; against Escherichia coli [1], 0.064 µg/mL; in the assay on Escherichia coli [2], 0.064 µg/mL.

The term MIC denotes the lowest concentration that inhibits growth of the organism.
